“And” between values parts separate entries of the source, which are not always exact repeats. Identical values can stand only once.
Columns and labels:
Assay type in all cases: cell-based
BromoTag-Brd2 [1] = target: T1, BromoTag-Brd2 (Homo sapiens, UniProt O60885+P40337, L387A); test: Dose-response degradation assay (western blot, 6 h) in heterozygous BromoTag-Brd2 HEK293 cells
T1 construct: comprising residues 368-440 of human Brd4; Brd2 (endogenous protein, fusion partner in the same polypeptide); eGFP-P2A (upstream marker in the knock-in cassette) (N, cleaved yes); expressed in transfected cells; host or cells: HEK293, heterozygous CRISPR knock-in at the endogenous BRD2 locus
Experimental: Dose-response Degradation Assays. All dose-response degradation assays were performed on the genotype verified heterozygous BromoTag-Brd2 HEK293 cell line. Heterozygous BromoTag-Brd2 HEK293 cells were plated at a density of 5×10^5 cells per well of a six healthy plate a day before initiation of the titration experiment. PROTAC compounds were dissolved in DMSO at a concentration of 10 mM, from these stock concentrations, PROTAC compounds were diluted to appropriate concentrations using DMSO in the range of 10 μM-1 nM. […] Control compounds such as MZ1, cis-MZ1 were similarly dissolved in DMSO to the appropriate concentration. […] Cells were washed twice with PBS before being harvested.
Western Blotting. […] The membranes were blocked for 1 h prior to incubation with the primary antibodies using 5% Milk TBST. […] Following overnight incubation with the primary antibodies at 4° C., the membranes were incubated with secondary antibodies (Anti-rabbit, Abcam AB216773, 1:5000 or anti-mouse, Abcam AB216774, 1:5000) and hFAB™ Rhodamine Anti-Tubulin Antibody (Biorad, 12004165, 1:10000) for one h and then imaged with a Bio-Rad imager (LI-COR Biosciences). All western blots were analysed for band intensities using Image Lab from Bio-Rad (LI-COR, Biosciences). The data extracted from these blots were then plotted and analysed using Prism (v. 8.2.0, GraphPad).

[2] = target: T2, PPM1H (Q9ULR3), BromoTag C-term (Homo sapiens, UniProt O60885+P40337, L387A); test: Degradation of BromoTag'ed PPM1H by AGB1
T2 construct: comprising residues 368-440 of human Brd4; PPM1H (endogenous protein, fusion partner in the same polypeptide); expressed in transfected cells
Description: (§1) Degradation of a variety of target proteins. […] We performed CRISPR knock-in of the BromoTag, as described, into the endogenous loci of five additional proteins. […] The target proteins of Table 6 are all different, are all known to have different cellular roles and function, intracellular expression, and distinctive turnover rates within cells.

[3] = target: T3, VPS34/PK3C3 (Q8NEB9), BromoTag N-term (Homo sapiens, UniProt O60885+P40337, L387A); test: Degradation of BromoTag'ed VPS34/PK3C3 by AGB1
T3 construct: comprising residues 368-440 of human Brd4; VPS34/PK3C3 (endogenous protein, fusion partner in the same polypeptide); expressed in transfected cells
Description: as §1

BromoTag-Brd2 [4] = target: T1, BromoTag-Brd2; test: Recovery (washout) assay
Experimental: Recovery Assay. A recovery assay was performed using 200 nM AGB1 over a 72 h period. This was performed in the genotype verified heterozygous BromoTag-Brd2 HEK293 cell line. Heterozygous BromoTag-Brd2 HEK293 cells were plated at a density of 5×10^5 cells per well of a six-well plate a day before initiating the recovery assay. On the experiment day, cells were washed with PBS before fresh DMEM was applied to contain either DMSO or AGB1 200 nM. During treatment, cells were kept at 37° C., 5% CO2, and 95% humidity. After three hours, the recovery and vehicle control condition cells were rewashed with PBS before fresh DMEM was applied absent 200 nM AGB1 or DMSO. As for the positive control condition, they were left with 200 nM AGB1 for the remainder of the treatment time.
Western Blotting. All cells were harvested on ice with RIPA lysis, and extraction buffer (ThermoFisher Scientific, 89901) supplemented with protease inhibitor cocktail (Merck, 11697498001) and Benzonase® Nuclease (Sigma, E1014) before being store at −20° C. prior to use. Total protein quantity was determined using the BCA protein assay (#23225, Pierce, Rockford, Illinois). Protein concentration was determined using the BCA assay (ThermoFisher Scientific, 23225). Samples were then prepared and loaded onto NuPAGE™ 4-12% Bis-Tris Midi gels (ThermoFisher Scientific, WG1403A), followed by the transfer of the proteins onto nitrocellulose membranes (EMD Millipore). The membranes were blocked for 1 h prior to incubation with the primary antibodies using 5% Milk TBST. Membranes were probed for Brd2 (Abcam, Ab139690, 1:1000), Brd3 (Abcam, Ab50818, 1:4000), Brd4 (Abcam, Ab128874, 1:1000) or our polyclonal Brd4^BD2 L387A antibody. […] All western blots were analysed for band intensities using Image Lab from Bio-Rad (LI-COR, Biosciences). The data extracted from these blots were then plotted and analysed using Prism (v. 8.2.0, GraphPad).

[5] = target: T4, MCM4 (P33991), BromoTag N-term (Homo sapiens, UniProt O60885+P40337, L387A); test: Degradation of BromoTag'ed MCM4 by AGB1
T4 construct: comprising residues 368-440 of human Brd4; MCM4 (endogenous protein, fusion partner in the same polypeptide); expressed in transfected cells
Description: as §1

T1 sequence (P40337 whole entry, other chains not shown, the tested form may be a part): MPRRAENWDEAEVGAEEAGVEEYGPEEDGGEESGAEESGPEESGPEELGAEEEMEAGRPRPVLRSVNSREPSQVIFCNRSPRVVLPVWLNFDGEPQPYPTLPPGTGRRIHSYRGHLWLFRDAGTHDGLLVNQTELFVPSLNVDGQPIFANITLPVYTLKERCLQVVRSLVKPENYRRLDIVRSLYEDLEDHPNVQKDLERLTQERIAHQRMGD
T4 sequence (P40337 whole entry, other chains not shown, the tested form may be a part): as above
T2 sequence (P40337 whole entry, other chains not shown, the tested form may be a part): as above
T3 sequence (P40337 whole entry, other chains not shown, the tested form may be a part): as above

In the case of `CC[C@@H](C(=O)OCCOCCOCCOCC(=O)N[C@H](C(=O)N1C[C@H](O)C[C@H]1C(=O)NCc1ccc(-c2scnc2C)cc1)C(C)(C)C)[C@@H]1N=C(c2ccc(Cl)cc2)c2c(sc(C)c2C)-n2c(C)nnc21` (single isomer, unassigned) [AGB1 (46)], the DC50 (BromoTag-Brd2 [1]; 6 h, range over the two antibodies, listed as 46) is reported as 13 to 15 nM and < 15 nM, the pDC50 (BromoTag-Brd2 [1]; Ab: Brd4^BD2 L387A, single stereoisomers, 8-point 10 μM-1 nM, 6 h, mean (±S.E.) of two repeats) is reported as 7.8 ± 0.2 and the pDC50 (BromoTag-Brd2 [1]; Ab: BromoTag-Brd2, single stereoisomers, 8-point 10 μM-1 nM, 6 h, mean (±S.E.) of two repeats) is reported as 7.9 ± 0.1. The pDC50 (BromoTag-Brd2 [1]; BromoTag'ed BRD2 (P25440), N-term tag, Table 6) was 7.8, the Dmax (BromoTag-Brd2 [1]; HEK293, Ab: Brd4^BD2 L387A, single stereoisomers, 6 h) was 99% and the Dmax [2] was > 95%. The pDC50 ([2]; BromoTag'ed PPM1H, C-term tag) was >7.0, the Dmax [3] was > 99% and the pDC50 ([3]; BromoTag'ed VPS34/PK3C3, N-term tag) was 8.0. For the same molecule, the “time after washout at which BromoTag-Brd2 protein levels recover” value (BromoTag-Brd2 [4]; 200 nM for 3 h, then washout) was 24 h, the “BromoTag-Brd2 level after 3 h treatment” value (BromoTag-Brd2 [4]; 200 nM, 3 h) was “complete depletion” and the “on-target degradation without washout” value (BromoTag-Brd2 [4]; 200 nM, no washout) was “complete and durable on-target degradation for up to 72 h”. For the same molecule, the Dmax [5] was > 99% and the pDC50 ([5]; BromoTag'ed MCM4, N-term tag) was 8.1.
